# From US20020042437A1 (priority 1997, published 2002)
# Where two headings read alike, the source gives them in different places.
# Tested on: Phytophthora infestans
# Format: in vivo
# Settings: single active ingredient, tomato leaves, infected next day, evaluated after 6 days
SMILES,Efficacy in % of the untreated control (0.25 ppm in the spray liquor) [%],Efficacy in % of the untreated control (0.5 ppm in the spray liquor) [%],Efficacy in % of the untreated control (1 ppm in the spray liquor) [%]
CCC(C)(NC(=O)c1cc(Cl)c(C)c(Cl)c1)C(=O)CCl (stereo not drawn) [Compound II.1],0,20,–
CNC(=O)/C(=N/OC)c1ccccc1COc1cc(C)ccc1C [Ib],0,–,–
CO/N=C(/C(=O)OC)c1ccccc1COc1ccccc1C [Ia],0,0,0
